The source of these data is patent US8969325B2, “TRPV1 antagonists” (AbbVie Inc., priority 2011, dated 2015).

As a reminder, the IC50 is the point on the concentration scale where inhibition reaches its midpoint.

Assay [1] deals with T1, human TRPV1 (Homo sapiens (Human), UniProt Q8NER1). Kind of assay: Capsaicin Activation Assay (intracellular Ca2+, FLIPR). It counts as cell-based. Particulars: recombinant HEK293 cells expressing hTRPV1, 50 nM capsaicin. In a few lines: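 Stably transfected HEK293 cells expressing human TRPV1 cDNA, plated the day before in poly-D-lysine plates. Compounds serially diluted from 10 mM DMSO stocks; intracellular Ca2+ fluorescence read on FLIPR at 1 to 5 second intervals.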

Assay [2] addresses T1, human TRPV1. The assay can be described thus: Acid Activation Assay (pH 5.0, intracellular Ca2+, FLIPR). It counts as cell-based. Conditions: percentage of the maximal pH 5.0-induced response remaining; recombinant HEK293 hTRPV1 cells; maximum concentration tested 37.5 μM. The essentials:
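HEK293 cells stably expressing recombinant hTRPV1, loaded with Calcium-4 dye 90-120 min at 25° C. Compounds added over a 12-point half-log range (top 37.5 μM), then pH 5.0 DPBS/MES challenge after 3 min; FLIPR peak fluorescence over baseline given as % of maximal pH 5.0 response.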

T1 sequence (Q8NER1 whole entry): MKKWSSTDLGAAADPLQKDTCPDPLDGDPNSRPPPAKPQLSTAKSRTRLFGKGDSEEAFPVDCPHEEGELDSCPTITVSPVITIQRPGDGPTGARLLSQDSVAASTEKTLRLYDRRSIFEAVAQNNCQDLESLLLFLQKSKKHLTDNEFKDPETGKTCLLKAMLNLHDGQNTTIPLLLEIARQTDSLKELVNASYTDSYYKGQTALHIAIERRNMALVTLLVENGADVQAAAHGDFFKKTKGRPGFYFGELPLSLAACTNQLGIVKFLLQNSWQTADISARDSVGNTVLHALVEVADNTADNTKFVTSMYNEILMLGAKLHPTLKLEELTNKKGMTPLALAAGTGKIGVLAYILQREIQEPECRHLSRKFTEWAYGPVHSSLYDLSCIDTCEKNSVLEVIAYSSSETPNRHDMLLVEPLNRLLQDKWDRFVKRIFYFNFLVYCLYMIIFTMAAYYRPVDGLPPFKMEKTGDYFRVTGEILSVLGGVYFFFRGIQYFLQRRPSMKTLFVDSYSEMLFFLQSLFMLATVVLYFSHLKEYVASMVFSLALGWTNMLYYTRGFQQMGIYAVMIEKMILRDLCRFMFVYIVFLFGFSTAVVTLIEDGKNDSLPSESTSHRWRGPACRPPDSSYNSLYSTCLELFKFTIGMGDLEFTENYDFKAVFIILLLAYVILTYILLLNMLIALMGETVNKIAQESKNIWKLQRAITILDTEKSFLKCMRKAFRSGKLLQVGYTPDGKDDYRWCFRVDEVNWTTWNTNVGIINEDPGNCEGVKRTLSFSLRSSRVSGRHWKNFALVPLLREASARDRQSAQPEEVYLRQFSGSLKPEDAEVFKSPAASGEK

With `CN1Cc2ccc(NC(=O)N[C@@H]3CC(C)(C)Oc4cc(C(F)(F)F)ccc43)cc2NC1=O` [Example 184, 1-[(4R)-2,2-dimethyl-7-(trifluoromethyl)-3,4-dihydro-2H-chromen-4-yl]-3-(3-methyl-2-oxo-1,2,3,4-tetrahydroquinazolin-7-yl)urea], the IC50 at human TRPV1 [1] was found to be 86 nM. Further, the “human TRPV1 H^+ (max % remain)” value on human TRPV1 [2] was found to be 44%.

Regarding `CCCC1(CCC)C[C@@H](NC(=O)Nc2ccc3c(c2)NC(=O)N(C)C3)c2cc(F)ccc2O1` [Example 185, 1-[(4R)-6-fluoro-2,2-dipropyl-3,4-dihydro-2H-chromen-4-yl]-3-(3-methyl-2-oxo-1,2,3,4-tetrahydroquinazolin-7-yl)urea], at human TRPV1 [1], the IC50 came out at 210 nM. The “human TRPV1 H^+ (max % remain)” value on human TRPV1 [2] came out at 61%.

Consider `CN1Cc2ccc(NC(=O)N[C@@H]3CC(CF)(CF)Oc4ccc(F)cc43)cc2NC1=O` [Example 186, 1-[(4R)-6-fluoro-2,2-bis(fluoromethyl)-3,4-dihydro-2H-chromen-4-yl]-3-(3-methyl-2-oxo-1,2,3,4-tetrahydroquinazolin-7-yl)urea], for which the IC50 at human TRPV1 [1] is 1500 nM. Moreover, the “human TRPV1 H^+ (max % remain)” value on human TRPV1 [2] came out at 58%.

With `CN1Cc2ccc(NC(=O)N[C@@H]3CC(CF)(CF)Oc4c(F)cc(F)cc43)cc2NC1=O` [Example 187, 1-[(4R)-6,8-difluoro-2,2-bis(fluoromethyl)-3,4-dihydro-2H-chromen-4-yl]-3-(3-methyl-2-oxo-1,2,3,4-tetrahydroquinazolin-7-yl)urea], on human TRPV1 [1], the half-maximal inhibitory concentration (IC50) is 760 nM. In addition, on human TRPV1 [2], the “human TRPV1 H^+ (max % remain)” value is 50%.

As for `CN1Cc2ccc(NC(=O)N[C@@H]3CC4(CCC4)Oc4ccc(F)cc43)cc2NC1=O` [Example 188, 1-[(4R)-6-fluoro-3,4-dihydrospiro[chromene-2,1′-cyclobutan]-4-yl]-3-(3-methyl-2-oxo-1,2,3,4-tetrahydroquinazolin-7-yl)urea], the half-inhibitory concentration (IC50) at human TRPV1 [1] came to 290 nM. Also, on human TRPV1 [2], the “human TRPV1 H^+ (max % remain)” value came to 46%.

Consider `CCC1(CC)C[C@@H](NC(=O)Nc2ccc3c(c2)NC(=O)N(C)C3)c2cc(F)ccc2O1` [Example 189, 1-[(4R)-2,2-diethyl-6-fluoro-3,4-dihydro-2H-chromen-4-yl]-3-(3-methyl-2-oxo-1,2,3,4-tetrahydroquinazolin-7-yl)urea], for which, at human TRPV1 [1], the IC50 was 200 nM. For the same compound, the “human TRPV1 H^+ (max % remain)” value on human TRPV1 [2] worked out at 40%.

In the case of `CCCC1(CCC)C[C@@H](NC(=O)Nc2ccc3c(c2)NC(=O)N(C)C3)c2cccc(F)c2O1` [Example 190, 1-[(4R)-8-fluoro-2,2-dipropyl-3,4-dihydro-2H-chromen-4-yl]-3-(3-methyl-2-oxo-1,2,3,4-tetrahydroquinazolin-7-yl)urea], the half-maximal inhibitory concentration (IC50) on human TRPV1 [1] is 450 nM. In addition, the “human TRPV1 H^+ (max % remain)” value at human TRPV1 [2] was 79%.

Turning to `CCC1(CC)C[C@@H](NC(=O)Nc2ccc3c(c2)NC(=O)N(C)C3)c2ccc(OC(F)(F)F)cc2O1` [Example 191, 1-[(4R)-2,2-diethyl-7-(trifluoromethoxy)-3,4-dihydro-2H-chromen-4-yl]-3-(3-methyl-2-oxo-1,2,3,4-tetrahydroquinazolin-7-yl)urea], the IC50 on human TRPV1 [1] is 450 nM. Moreover, the “human TRPV1 H^+ (max % remain)” value at human TRPV1 [2] was 19%.

In the case of `CN1Cc2ccc(NC(=O)N[C@@H]3CC(CF)(CF)Oc4c3ccc(Cl)c4F)cc2NC1=O` [Example 192, 1-[(4R)-7-chloro-8-fluoro-2,2-bis(fluoromethyl)-3,4-dihydro-2H-chromen-4-yl]-3-(3-methyl-2-oxo-1,2,3,4-tetrahydroquinazolin-7-yl)urea], the half-inhibitory concentration (IC50) at human TRPV1 [1] was determined as 280 nM. Besides, the “human TRPV1 H^+ (max % remain)” value at human TRPV1 [2] is 53%.

Turning to `CN1Cc2ccc(NC(=O)N[C@@H]3CC(C)(C)Oc4ccccc43)cc2NC1=O` [Example 193, 1-[(4R)-2,2-dimethyl-3,4-dihydro-2H-chromen-4-yl]-3-(3-methyl-2-oxo-1,2,3,4-tetrahydroquinazolin-7-yl)urea], the half-maximal inhibitory concentration (IC50) at human TRPV1 [1] is 270 nM. The “human TRPV1 H^+ (max % remain)” value at human TRPV1 [2] was found to be 56%.

In the case of `CN1Cc2ccc(NC(=O)N[C@H]3CCOc4cc(OC(F)(F)F)ccc43)cc2NC1=O` [Example 194, 1-(3-methyl-2-oxo-1,2,3,4-tetrahydroquinazolin-7-yl)-3-[(4S)-7-(trifluoromethoxy)-3,4-dihydro-2H-chromen-4-yl]urea], at human TRPV1 [1], the IC50 came to 1800 nM. Moreover, the “human TRPV1 H^+ (max % remain)” value at human TRPV1 [2] turned out to be 52%.

In the case of `CN1Cc2ccc(NC(=O)N[C@@H]3CCOc4cc(OC(F)(F)F)ccc43)cc2NC1=O` [Example 195, 1-(3-methyl-2-oxo-1,2,3,4-tetrahydroquinazolin-7-yl)-3-[(4R)-7-(trifluoromethoxy)-3,4-dihydro-2H-chromen-4-yl]urea], the concentration for half-maximal inhibition (IC50) at human TRPV1 [1] turned out to be 280 nM. The “human TRPV1 H^+ (max % remain)” value on human TRPV1 [2] is 49%.

Turning to `COCC1(COC)C[C@@H](NC(=O)Nc2ccc3c(c2)NC(=O)N(C)C3)c2cc(F)ccc2O1` [Example 196, 1-[(4R)-6-fluoro-2,2-bis(methoxymethyl)-3,4-dihydro-2H-chromen-4-yl]-3-(3-methyl-2-oxo-1,2,3,4-tetrahydroquinazolin-7-yl)urea], the IC50 at human TRPV1 [1] turned out to be 2700 nM. Further, at human TRPV1 [2], the “human TRPV1 H^+ (max % remain)” value worked out at 53%.

As for `CN1Cc2ccc(NC(=O)N[C@@H]3CC(CF)(CF)Oc4ccccc43)cc2NC1=O` [Example 197, 1-[(4R)-2,2-bis(fluoromethyl)-3,4-dihydro-2H-chromen-4-yl]-3-(3-methyl-2-oxo-1,2,3,4-tetrahydroquinazolin-7-yl)urea], the IC50 on human TRPV1 [1] was 1100 nM. Also, at human TRPV1 [2], the “human TRPV1 H^+ (max % remain)” value came out at 57%.

With `CN1Cc2ccc(NC(=O)N[C@@H]3CC(CF)(CF)Oc4c(F)cccc43)cc2NC1=O` [Example 198, 1-[(4R)-8-fluoro-2,2-bis(fluoromethyl)-3,4-dihydro-2H-chromen-4-yl]-3-(3-methyl-2-oxo-1,2,3,4-tetrahydroquinazolin-7-yl)urea], the concentration for half-maximal inhibition (IC50) on human TRPV1 [1] stood at 350 nM. For the same compound, at human TRPV1 [2], the “human TRPV1 H^+ (max % remain)” value amounted to 55%.

Consider `CN1Cc2ccc(NC(=O)N[C@@H]3CCOc4ccc(F)cc43)cc2NC1=O` [Example 199, 1-[(4R)-6-fluoro-3,4-dihydro-2H-chromen-4-yl]-3-(3-methyl-2-oxo-1,2,3,4-tetrahydroquinazolin-7-yl)urea], for which the IC50 on human TRPV1 [1] was found to be 6700 nM. Moreover, the “human TRPV1 H^+ (max % remain)” value on human TRPV1 [2] is 58%.

As to `CN1Cc2ccc(NC(=O)N[C@@H]3CCOc4c3cccc4C(F)(F)F)cc2NC1=O` [Example 200, 1-(3-methyl-2-oxo-1,2,3,4-tetrahydroquinazolin-7-yl)-3-[(4R)-8-(trifluoromethyl)-3,4-dihydro-2H-chromen-4-yl]urea], the concentration for half-maximal inhibition (IC50) at human TRPV1 [1] was determined as 90 nM. Further, the “human TRPV1 H^+ (max % remain)” value on human TRPV1 [2] is 21%.

As for `CN1Cc2ccc(NC(=O)N[C@@H]3CCOc4cc(C(F)(F)F)ccc43)cc2NC1=O` [Example 201, 1-(3-methyl-2-oxo-1,2,3,4-tetrahydroquinazolin-7-yl)-3-[(4R)-7-(trifluoromethyl)-3,4-dihydro-2H-chromen-4-yl]urea], the half-inhibitory concentration (IC50) on human TRPV1 [1] is 130 nM. At human TRPV1 [2], the “human TRPV1 H^+ (max % remain)” value worked out at 45%.

As for `CN1Cc2ccc(NC(=O)N[C@@H]3CCc4cc(F)ccc43)cc2NC1=O` [Example 202, 1-[(1R)-5-fluoro-2,3-dihydro-1H-inden-1-yl]-3-(3-methyl-2-oxo-1,2,3,4-tetrahydroquinazolin-7-yl)urea], on human TRPV1 [1], the IC50 is 220 nM. The “human TRPV1 H^+ (max % remain)” value on human TRPV1 [2] is listed as 50%.

On to `CN1Cc2ccc(NC(=O)N[C@H]3CC4(CCC4)Oc4ccc(F)cc43)cc2NC1=O` [Example 203, 1-[(4S)-6-fluoro-3,4-dihydrospiro[chromene-2,1′-cyclobutan]-4-yl]-3-(3-methyl-2-oxo-1,2,3,4-tetrahydroquinazolin-7-yl)urea], for which the IC50 at human TRPV1 [1] was 28000 nM. Also, the “human TRPV1 H^+ (max % remain)” value on human TRPV1 [2] is recorded as 64%.

`CN1Cc2ccc(NC(=O)N[C@H]3CC(C)(C)Oc4ccc(F)cc43)cc2NC1=O` [Example 204, 1-[(4S)-6-fluoro-2,2-dimethyl-3,4-dihydro-2H-chromen-4-yl]-3-(3-methyl-2-oxo-1,2,3,4-tetrahydroquinazolin-7-yl)urea]: on human TRPV1 [1], the IC50 was determined as 1600 nM. Besides, at human TRPV1 [2], the “human TRPV1 H^+ (max % remain)” value is recorded as 55%.

As for `CN1Cc2ccc(NC(=O)N[C@@H]3CC4(CCCC4)Oc4ccccc43)cc2NC1=O` [Example 205, 1-[(4R)-3,4-dihydrospiro[chromene-2,1′-cyclopentan]-4-yl]-3-(3-methyl-2-oxo-1,2,3,4-tetrahydroquinazolin-7-yl)urea], on human TRPV1 [1], the IC50 came out at 400 nM. For the same compound, the “human TRPV1 H^+ (max % remain)” value at human TRPV1 [2] came out at 56%.

For `CN1Cc2ccc(NC(=O)N[C@@H]3C[C@](C)(CF)Oc4cc(C(F)(F)F)ccc43)cc2NC1=O` [Example 206, 1-[(2R,4R)-2-(fluoromethyl)-2-methyl-7-(trifluoromethyl)-3,4-dihydro-2H-chromen-4-yl]-3-(3-methyl-2-oxo-1,2,3,4-tetrahydroquinazolin-7-yl)urea], at human TRPV1 [1], the IC50 was determined as 240 nM. Also, the “human TRPV1 H^+ (max % remain)” value on human TRPV1 [2] turned out to be 43%.

For the compound `CN1Cc2ccc(NC(=O)N[C@@H]3C[C@](C)(C(F)F)Oc4ccccc43)cc2NC1=O` [Example 207, 1-[(2R,4R)-2-(difluoromethyl)-2-methyl-3,4-dihydro-2H-chromen-4-yl]-3-(3-methyl-2-oxo-1,2,3,4-tetrahydroquinazolin-7-yl)urea], the IC50 on human TRPV1 [1] was 330 nM. Besides, at human TRPV1 [2], the “human TRPV1 H^+ (max % remain)” value amounted to 57%.

Take `CN1Cc2ccc(NC(=O)N[C@@H]3CC(C)(C)Oc4nc(C(F)(F)F)ccc43)cc2NC1=O` [Example 208, 1-[(4R)-2,2-dimethyl-7-(trifluoromethyl)-3,4-dihydro-2H-pyrano[2,3-b]pyridin-4-yl]-3-(3-methyl-2-oxo-1,2,3,4-tetrahydroquinazolin-7-yl)urea]: the half-inhibitory concentration (IC50) on human TRPV1 [1] was found to be 1300 nM. For the same compound, at human TRPV1 [2], the “human TRPV1 H^+ (max % remain)” value was 55%.
